In PubChem BioAssay (NCI):
Several values for one entry are separate records, joined by “and”; a condition that tells them apart may be missing. Equal entries are not always repeated.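 The compound was tested at five concentrations on cells cultured in 96-well plates, with a 48-hour exposure period. GI50: concentration for 50% inhibition of growth. The concentration for full growth arrest is given as TGI.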

Experiments:
Assay in all cases: NCI anticancer screen, dose series, 48 h
[1] = system: A549 NSCLC
[2] = system: EKVX NSCLC
[3] = system: HS 578T breast
[4] = system: HT29 colon
[5] = system: LOX IMVI melanoma
[6] = system: MDA-MB-231 breast
[7] = system: NCI-H23 lung
[8] = system: SW-620 colon
[9] = system: TK-10 renal
[10] = system: U251 CNS

Structure (SMILES) | TGI [1] [µM] | TGI [2] [µM] | TGI [3] [µM] | TGI [4] [µM] | TGI [5] | TGI [6] [µM] | TGI [7] [µM] | TGI [8] [µM] | TGI [9] [µM] | TGI [10] [µM] | GI50 [1] [µM] | GI50 [2] [µM] | GI50 [3] [µM] | GI50 [4] [µM] | GI50 [5] [µM] | GI50 [6] [µM] | GI50 [7] [µM] | GI50 [8] [µM] | GI50 [9] [µM] | GI50 [10] [µM]
Cc1coc2c1C(OC(=O)C(C)C)C1(C)C(C)CCC(O)C1C2=O (configuration not stated) | > 100 | > 100 | > 100 | > 100 | > 100 µM | > 100 | > 100 | > 100 | > 100 | > 100 | – | – | – | – | – | – | – | – | – | –
C[C@@H]1COCCN1c1cc(C2(O)C[C@H]3CC[C@@H](C2)O3)c2cnn(-c3ccn[nH]3)c2n1 (some centres not stated) | 1.13 | 0.845 | 0.556 | > 100 | 0.145 µM | 5.68 | 0.188 | > 37.7 | 1.01 | 8.62 | 0.0651 | 0.139 | 0.0479 | 0.181 | 0.0246 | 0.138 | 0.0286 | 0.187 | 0.0515 | 0.137
COc1cccc2c1n([O-])c1cccc(OC)c1[n+]2=O | > 100 | 37 | 60.1 | – | 27.2 µM | > 100 | 28 | 21.7 | > 100 | 48.2 | 7.78 | 7.26 | 8.87 | – | 5.19 | 20.9 | 4.82 | 4.91 | 24.3 | 10.4
CC(=C/c1ccccc1)/C=C1/NC(=S)N(/C=C2\C(=O)Oc3ccccc3C2=O)C1=O | > 100 | > 100 | > 100 | > 100 | > 100 µM | > 100 | > 100 | > 100 | > 100 | > 100 | – | – | > 100 | > 100 | – | – | – | > 100 | – | –
O=C(c1ccccc1)c1c(C(F)(F)F)n([O-])c2ccc(C(F)(F)F)cc2[n+]1=O | 0.278 | 0.597 | 1.33 | 0.349 | 0.0954 µM | 0.354 | 1.13 | 0.279 | 1.35 | 0.305 | 0.14 | 0.234 | 0.537 | 0.177 | 0.0513 | 0.185 | 0.503 | 0.135 | 0.636 | 0.166
CCN(CC)C(=S)[S][Bi]([S]C(=S)N(CC)CC)[S]C(=S)N(CC)CC | 3.27 | 0.732 | 5.87 | 0.229 | 0.745 µM | 0.338 | 0.582 | 0.229 | 0.374 | 2.34 | 1.74 | 0.282 | 2.64 | 0.052 | 0.261 | 0.133 | 0.211 | 0.0916 | 0.197 | 1.12
Cc1c([N+](=O)[O-])oc2ccc3ccccc3c12 | > 100 | > 100 | > 100 | > 100 | > 100 µM | > 100 | > 100 | > 100 | > 100 | > 100 | – | – | – | – | – | – | – | – | – | –
CCSc1ccc(C2C(Br)C(=O)N2c2cc(OC)c(OC)c(OC)c2)cc1 (configuration not stated) | > 100 | > 100 | > 100 | 12.3 | 16.6 µM | 95.3 | 73.4 | 20.3 | 33.4 | 39.8 | 0.598 | 0.639 | 0.229 | 0.351 | 0.834 | 0.488 | 0.478 | 0.236 | 14.3 | 0.345
O=c1oc2c(C(F)(F)F)cccc2cc1-c1csc(Nc2ccc(OCCF)cc2)n1 | 18.8 | > 100 | > 69.4 | 1.02 | > 42.2 µM | > 35.9 | 23.4 | > 100 | 81 | 12 | 0.0391 | 0.0556 | 0.051 | 0.032 | 0.0467 | 0.0663 | 0.0544 | 0.0468 | 0.0838 | 0.0376
COc1ccc(Cn2cc3c(c2-c2cc(OC)c(OC)c(OC)c2)CCc2cnoc2-3)cc1 | > 100 | > 100 | 0.805 | 10.3 | > 100 µM | > 100 | > 100 | > 100 | > 100 | > 100 | 0.372 | 0.397 | 0.238 | 0.335 | 0.813 | 0.735 | 0.388 | 0.314 | 0.842 | 0.393
C/C(=N\NC(=S)N(C)C)c1ccccn1 | 14.3 | 3.07 | 37.2 | 15.8 | 0.141 µM and 0.0176 µM | 17.6 | 18.7 | 35.4 | 10.7 | 6.73 | – | 0.143 | – | 0.000846 | 0.00215 | 0.291 | – | – | 0.00279 | 0.00245
CCN(CC)c1ccc(/C=C/C=C2\NC(=O)NC2=O)cc1 | 32.7 | > 100 | 42.6 | 9.25 | > 100 µM | > 100 | > 100 | > 100 | 64.2 | 17.9 | 3.69 | 3.77 | 3.91 | 1.82 | 7.15 | 10.5 | 11.2 | 3.77 | 6.54 | 3.22
Cc1ccc(-c2cc(O)c(-c3ccc(C)cc3C)cc2O)c(C)c1 | 21.6 | 37.3 | 61.9 | 17.1 | 17.2 µM | 21 | 26.2 | 18.5 | 42.2 | 17.3 | 3.8 | 5.45 | 12.7 | 4.73 | 1.92 | 3.94 | 7.43 | 5.64 | 11.7 | 2.32
